From a melting point compilation (Tetko et al.; mined from patent text by program, amines drawn as free bases though some values may be those of a salt)

Compared with `CCN(CC)CCOCCC1CCCCN1C(=O)N1c2ccccc2C(=O)Nc2cccnc21` (stereo not given), `CCN(CC)CCn1nc2c3c(c(CNS(C)(=O)=O)ccc31)Sc1ccccc1-2` is lower in melting point: 134 to 136 °C for the first, 120 to 125 °C for the second.

First: COc1ccc2cc3ncc(C#N)c(Cl)c3cc2c1
Second: COc1ccc(-n2c(-c3cccnc3)nc(SC)c(C#N)c2=O)cc1
The melting point of the first is higher: 242 to 243 °C for the first, 230 to 233 °C for the second.

First: CCCCCCCCCCCCCCCCOc1ccc(OCC(=O)Nc2cccc(CBr)c2)cc1
Second: CCCC(=O)c1cnc2c(OCCO)cccc2c1Nc1ccccc1C
The melting point of the first is higher: 183 to 186 °C for the first, 125 to 127 °C for the second.

Compared with `CC1=C(C#N)C(c2cccc3ncc(Cc4ccccc4)cc23)C(C(=O)OC(C)C)=C(C)N1` (stereo not given), `C=CCCCN(C(=O)OC(C)(C)C)c1cc(OCc2ccccc2)c2ccccc2c1I` is lower in melting point: 188 to 190 °C for the first, 69 to 71 °C for the second.

Compared with `O=C(Nc1cc(-c2ccnc3c(C(=O)c4cccs4)cnn23)ccc1F)OCCCl`, `O=C(NCc1ccc(Cl)cc1)c1cnc2sc(C(=O)N3CCOCC3)cc2c1O` is higher in melting point: 194 to 196 °C for the first, 217 to 219 °C for the second.

First: O=C1CN(Cc2cccc(I)c2)S(=O)(=O)N1
Second: OCc1cccc(C=CC2N=Cc3cc(Cl)ccc3S2)c1 (stereo not given)
The melting point of the first is lower: 101 to 103 °C for the first, 143 to 145 °C for the second.

First: O=C1CCc2cc(C(=O)[C@H]3C[C@H]3C(=O)O)ccc2N1 (relative stereo)
Second: COC(=O)c1ccc(S(=O)(=O)Cc2c(O)ccc3c2CCCC3=O)cc1
The melting point of the first is higher: 190 to 194 °C for the first, 132 to 134 °C for the second.

First: CSc1nn(C(=S)Oc2ccccc2)c(=O)n1C
Second: CN1C[C@@H](O)[C@H](Oc2ccccc2)C1 (relative stereo)
The melting point of the first is higher: 242 °C for the first, 89 to 90 °C for the second.

Compared with `CC(C)[C@H](O)CP(=O)(O)CCCN`, `CC1CC(=O)NN=C1c1ccc(NCCN)c(N)c1` (stereo not given) is lower in melting point: 187 to 189 °C for the first, 176 to 177 °C for the second.

First: CS(=O)(=O)c1ccc(N2CCC3(CC2)Nc2cc(Cl)ccc2C(=O)O3)cc1
Second: O=C1c2ccc(C(F)(F)F)cc2CCC1CN1CCC2(CC1)C(=O)NCN2c1ccccc1 (stereo not given)
The melting point of the first is higher: 193 to 194 °C for the first, 159 to 162 °C for the second.

First: C=C(Cl)CONC(=O)c1nc(-c2ccc(Cl)c(OC)c2F)cc(N)c1Cl
Second: COc1ccc(C(=O)Nc2cccc(Cl)c2)cc1NC(=S)Nc1ccc(F)cc1
The melting point of the first is lower: 146 to 148 °C for the first, 184 to 185 °C for the second.

First: Cc1[nH]c2ccccc2c1C[C@@H](N)C(=O)O
Second: CCCc1nc2c(N)nc3ccccc3c2n1OCC(N)=O
The melting point of the first is higher: 244 to 246 °C for the first, 192 to 194 °C for the second.

Compared with `COc1ccccc1NC(=O)Nc1nc(Nc2ccccc2-c2ccccc2)nc(N(CC(=O)O)Cc2ccc(C)cc2)n1`, `Cc1ccsc1C(=O)Nc1ccc(C(=O)N2Cc3ccccc3Cc3ccccc32)cc1` is higher in melting point: 132 to 145 °C for the first, 201 to 204 °C for the second.

First: O=C(C=CCl)c1cc(F)c(Cl)cc1Cl
Second: Cn1c(C(F)(F)F)cc(=O)n(-c2c(O)cc(Cl)cc2F)c1=O
The melting point of the first is lower: 65 to 70 °C for the first, 143 to 144 °C for the second.

First: CCCc1nnc2n1-c1ccccc1CS2
Second: ON=C1Cc2ccccc2C1
The melting point of the first is lower: 114 °C for the first, 145 to 148 °C for the second.

Compared with `CC(NO)c1ccc2c(c1)Sc1ccccc1O2` (stereo not given), `COc1cccc2c(NCc3ccccc3C)nc(N)nc12` is higher in melting point: 64 to 67 °C for the first, 274 to 275 °C for the second.

First: CCN1CCN(C(=O)c2ccc(-c3cc(C(=O)Cc4cccc(C)n4)ccn3)cc2)CC1
Second: Oc1ccc(CCN2CCC(=C3c4sccc4CCn4ccnc43)CC2)cc1
The melting point of the first is lower: 90 °C for the first, > 200 °C for the second.

First: CCCc1c(OCCCOc2ccc(C(C)=O)c(OCC(=O)O)c2CCC)ccc(C(C)=O)c1O
Second: CC(C)Oc1ccc2nc(COc3ccc(CC4SC(=O)NC4=O)cc3)n(C)c2n1 (stereo not given)
The melting point of the first is lower: 151 to 155 °C for the first, 210 to 212 °C for the second.

First: Sc1c(Br)cc(Br)c(Br)c1S
Second: CC(=O)c1cn(Cc2ccccc2)c(=O)n(Cc2ccccc2)c1=O
The melting point of the first is higher: 125 to 127 °C for the first, 92 to 93 °C for the second.

First: CCOC(=O)C(=NOCCBr)c1csc(NC=O)n1
Second: C=C(CN1CCOCC1)C(=O)O
The melting point of the first is lower: 95 to 98 °C for the first, 121 to 125 °C for the second.
